Here are results for five compounds from article PMC2120320 (The Journal of Cell Biology, 1994).

Assay [1] deals with dynein-driven microtubule sliding in pf18 axonemes. Description: Microtubule sliding velocity in pf18 axonemes. To be noted: pf18, 100 nM PKI; Habermacher, G., unpublished results. Type of assay: biochemical, Chlamydomonas reinhardtii.
Assay [2] relates to dynein-driven microtubule sliding in spoke-deficient axonemes. Description: Microtubule sliding velocity in spoke-deficient axonemes. Type of assay: biochemical, Chlamydomonas reinhardtii. To be noted: for effect on velocity of microtubule sliding: spoke-deficient mutants (pf14, pf17).
Assay [3] has as its target cAMP-dependent protein kinase (cAPK). To be noted: ref Glass et al., cited from earlier work.
Assay [4] deals with dynein-driven microtubule sliding in wild-type 137c axonemes. Description: Microtubule sliding velocity in wild-type. Format: biochemical, Chlamydomonas reinhardtii.
For assay [5], the system named is dynein-driven microtubule sliding in pf14pf28 axonemes. Description: Microtubule sliding velocity in pf14pf28 axonemes. Type of assay: biochemical, Chlamydomonas reinhardtii.
Another assay deals with pf17 axonemes. Description: In vitro reactivation of beating of pf17 axonemes. Type of assay: biochemical, Chlamydomonas reinhardtii. To be noted: pf17 axonemes with PKI, preliminary experiments.
The subject of a further assay is inner arm dyneins. Format: biochemical, Chlamydomonas reinhardtii.
Assay [6] deals with dynein-driven microtubule sliding in pf17 axonemes. Put plainly: Microtubule sliding velocity in isolated pf17 axonemes. Format: biochemical, Chlamydomonas reinhardtii.
The target of assay [7] is PKI-sensitive kinase activity. To be noted: demembranated ram sperm, treatment with cAMP; ref San Agustin and Witman, 1994; cited from earlier work.
Assay [8] deals with catalytic subunit of cAPK. To be noted: demembranated rat sperm; ref Horowitz et al., 1984; cited from earlier work.
The subject of assay [9] is dynein-driven microtubule sliding in pf14 axonemes. Put plainly: Microtubule sliding velocity in isolated pf14 axonemes. To be noted: pf14, 10 μM cAMP alone (Fig. 4), mean from 20 measurements. Type of assay: biochemical, Chlamydomonas reinhardtii.
The target of assay [10] is cyclic nucleotide-dependent kinases. To be noted: inhibition of cyclic nucleotide-dependent kinases; ref Hidaka et al., 1984; cited from earlier work.
Assay [11] has as its target myosin light chain kinase. To be noted: ref Hidaka et al., 1984; cited from earlier work.
In another assay the target is protein kinase C. To be noted: ref Hidaka et al., 1984; cited from earlier work.

Some results are limits rather than exact numbers.

For orientation: Ki means the dissociation constant of the complex between target and ligand, obtained from inhibition or displacement. With “Thr-Tyr-Ala-Asp-Phe-Ile-Ala- Ser-Gly-Arg-Thr-Gly-A_rg-Arg-Aan-Ala-Ile-NH2 [PKI, PKI(6-22)amide]”, the “effect on velocity of microtubule sliding” value (“effect on velocity” for short) was “significantly increased to wild-type levels” in [1] and “increased to wild-type level” in [2]. Moreover, in [2] (spoke-deficient axonemes), the “dose dependence of sliding velocity stimulation” value is on record as “dose-dependent”. In assay [3] (inhibition of cAPK, 1989), the Ki was 1.6 to 2.5 nM. Besides, the “specificity of cAPK inhibition” value in [3] (1986) is “high degree of specificity”. The “effect on microtubule sliding velocity” value in assay [4] (wild-type 137c, 0-200 nM PKI (Fig. 2b)) was “did not affect”; in assay [5] (pf14pf28, 100 nM PKI (Fig. 5), P < 0.001), “significantly increased”; in [6] (pf17, 100 nM peptide (Fig. 2a), PKI and NAcPKI P < 0.01 vs control or triAlaPKI) it was “significantly increased”. The “effect on microtubule sliding vs pf28 control velocity” value in assay [5] (pf14pf28, PKI) was “increased microtubule sliding to control (pf28) velocity”. For the same compound, the “reactivation of in vitro beating” value with pf17 axonemes is “unable to reactivate”. Also, the “sliding velocity with control dynein on extracted PKI-treated axonemes (PKIAxos)” value in the assay with inner arm dyneins (pf14pf28, 100 nM PKI (Fig. 6), two experiments pooled) is “only slow”. Also, the “sliding velocity of PKI-treated axonemes before extraction vs control axonemes” value in the assay on inner arm dyneins (pf14pf28, 100 nM PKI, Pre-Extr (Fig. 6), P < 0.05) was “significantly greater”. Besides, the “efficacy of PKI versus NAcPKI” value in [6] (pf17, 100 nM (Fig. 2a)) is “no detectable difference”.

Consider `Nc1ncnc2c1ncn2[C@@H]1O[C@@H]2COP(=O)(O)O[C@H]2[C@H]1O` [cAMP], for which, in [7], the “PKI-sensitive kinase activity remaining bound after cAMP” value is listed as at most 50%. Besides, the “effect on RII-induced increase in sliding” value in assay [2] (10 μM cAMP added to spokeless axonemes reconstituted with RII) is on record as “reversed the effect of RII”. In addition, the “release of catalytic activity” value in assay [8] is “releases most of the catalytic activity”. In addition, in assay [9], the “effect on microtubule sliding velocity” value is listed as “had no effect”.

As for `CC1CNCCN1S(=O)(=O)c1cccc2cnccc12` (centres unmarked) [H-7], the “effect on sliding velocity” value in [2] (H-7, spoke-deficient axonemes, data not shown) is listed as “increases”. Also, the “effect on velocity” value in assay [2] is recorded as “increased to wild-type level”.

`Cl.N=C(N)NCCNS(=O)(=O)c1cccc2cnccc12` [HA-1004, N-(2-guanidinoethyl)-5-isoquinolinesulfonamide hydrochloride]: the “dose dependence of sliding velocity stimulation” value in assay [2] (spoke-deficient axonemes) is on record as “dose dependent”. The “effect on velocity” value in [2] was “increased to wild-type level”. The values for the Ki (in [10]; in assay [11]; on protein kinase C) were 1000 to 3000 nM, 150 µM and 40 µM, respectively. For the same compound, the “effect on microtubule sliding velocity” value in assay [4] (wild-type, 15 μM HA-1004, not shown) was “had no effect”.

Consider “RII: regulatory subunit of bovine cardiac type II cAPK (Promega)”, for which the “effect of RII on microtubule sliding” value in [2] (spoke-deficient axonemes, type-II regulatory subunit of cAPK) was “increased microtubule sliding to wild-type velocity”.
